Assays:
MCF7 = test: Antiproliferative activity against human MCF7 cells assessed as reduction in cell viability; format: functional, cell-based
Sphingosine kinase 1 = Sphingosine kinase 1 (Homo sapiens, UniProt Q9NYA1); test: Inhibition of SPHK1 (unknown origin)
Histone deacetylase 1 = Histone deacetylase 1 (Homo sapiens, UniProt Q13547); test: Inhibition of HDAC1 (unknown origin)
Histone deacetylase 3 = Histone deacetylase 3 (Homo sapiens, UniProt O15379); test: Inhibition of HDAC3 (unknown origin)
Histone deacetylase 3, sequence (O15379 whole entry): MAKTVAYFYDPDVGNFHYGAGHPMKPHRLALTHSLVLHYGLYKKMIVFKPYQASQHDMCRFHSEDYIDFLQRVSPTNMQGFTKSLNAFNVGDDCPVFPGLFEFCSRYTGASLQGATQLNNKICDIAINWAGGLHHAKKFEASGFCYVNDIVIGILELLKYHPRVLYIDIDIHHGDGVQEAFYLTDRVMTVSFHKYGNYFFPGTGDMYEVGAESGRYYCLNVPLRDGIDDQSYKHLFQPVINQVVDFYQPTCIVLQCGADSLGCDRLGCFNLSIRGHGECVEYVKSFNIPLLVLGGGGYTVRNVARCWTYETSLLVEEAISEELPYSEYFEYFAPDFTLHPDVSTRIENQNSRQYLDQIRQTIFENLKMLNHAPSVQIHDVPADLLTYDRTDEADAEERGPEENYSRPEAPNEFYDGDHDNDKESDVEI

Histone deacetylase 2 = Histone deacetylase 2 (Homo sapiens, UniProt Q92769); test: Inhibition of HDAC2 (unknown origin)
Histone deacetylase 2, sequence (Q92769 whole entry): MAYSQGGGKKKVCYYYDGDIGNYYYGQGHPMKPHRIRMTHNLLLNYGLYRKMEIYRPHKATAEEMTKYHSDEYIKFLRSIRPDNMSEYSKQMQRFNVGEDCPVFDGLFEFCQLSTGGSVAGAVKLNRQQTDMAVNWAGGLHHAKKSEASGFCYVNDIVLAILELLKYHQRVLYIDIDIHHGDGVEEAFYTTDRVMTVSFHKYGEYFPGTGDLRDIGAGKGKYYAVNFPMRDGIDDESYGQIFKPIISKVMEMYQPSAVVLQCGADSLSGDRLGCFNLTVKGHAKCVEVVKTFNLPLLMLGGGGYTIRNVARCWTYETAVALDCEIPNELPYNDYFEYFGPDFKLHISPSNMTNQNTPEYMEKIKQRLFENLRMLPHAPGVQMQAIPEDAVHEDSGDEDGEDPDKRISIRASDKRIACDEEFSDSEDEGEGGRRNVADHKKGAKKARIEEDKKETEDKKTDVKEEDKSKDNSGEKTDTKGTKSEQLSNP

Histone deacetylase 5 = Histone deacetylase 5 (Homo sapiens, UniProt Q9UQL6); test: Inhibition of HDAC5 (unknown origin)
Histone deacetylase 5, sequence (Q9UQL6 whole entry): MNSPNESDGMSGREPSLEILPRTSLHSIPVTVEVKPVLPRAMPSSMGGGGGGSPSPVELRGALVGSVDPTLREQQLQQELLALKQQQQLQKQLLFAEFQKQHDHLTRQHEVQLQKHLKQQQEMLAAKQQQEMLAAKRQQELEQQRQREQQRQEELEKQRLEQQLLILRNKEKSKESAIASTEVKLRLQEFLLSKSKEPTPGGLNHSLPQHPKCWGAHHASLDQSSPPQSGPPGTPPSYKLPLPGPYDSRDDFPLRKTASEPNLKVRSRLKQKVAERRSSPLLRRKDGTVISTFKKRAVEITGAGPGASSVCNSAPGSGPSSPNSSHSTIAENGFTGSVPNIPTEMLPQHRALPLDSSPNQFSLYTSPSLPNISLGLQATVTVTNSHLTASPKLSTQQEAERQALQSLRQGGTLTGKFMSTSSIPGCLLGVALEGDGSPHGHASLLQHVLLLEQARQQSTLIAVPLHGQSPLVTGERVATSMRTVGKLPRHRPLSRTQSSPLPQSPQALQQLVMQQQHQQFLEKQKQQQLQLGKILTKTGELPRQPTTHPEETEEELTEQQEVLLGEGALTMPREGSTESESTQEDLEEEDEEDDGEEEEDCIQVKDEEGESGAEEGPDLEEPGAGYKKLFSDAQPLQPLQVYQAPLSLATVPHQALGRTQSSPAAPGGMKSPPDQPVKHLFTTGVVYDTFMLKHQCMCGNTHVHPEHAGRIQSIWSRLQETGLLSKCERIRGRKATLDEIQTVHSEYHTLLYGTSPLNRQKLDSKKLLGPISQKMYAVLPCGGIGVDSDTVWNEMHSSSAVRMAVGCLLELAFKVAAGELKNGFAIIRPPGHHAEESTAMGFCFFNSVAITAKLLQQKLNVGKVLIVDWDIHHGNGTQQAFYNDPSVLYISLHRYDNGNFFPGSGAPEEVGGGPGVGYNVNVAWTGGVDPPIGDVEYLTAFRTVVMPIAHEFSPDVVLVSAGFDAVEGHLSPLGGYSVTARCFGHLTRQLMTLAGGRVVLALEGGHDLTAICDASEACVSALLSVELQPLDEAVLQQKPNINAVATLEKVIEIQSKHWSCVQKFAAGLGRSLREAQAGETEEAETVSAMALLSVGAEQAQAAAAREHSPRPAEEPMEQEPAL

[1] = target: T1, Protein deacetylase HDAC6 (Homo sapiens, UniProt Q9UBN7); test: Inhibition of HDAC6 (unknown origin)
T1 sequence (Q9UBN7 whole entry): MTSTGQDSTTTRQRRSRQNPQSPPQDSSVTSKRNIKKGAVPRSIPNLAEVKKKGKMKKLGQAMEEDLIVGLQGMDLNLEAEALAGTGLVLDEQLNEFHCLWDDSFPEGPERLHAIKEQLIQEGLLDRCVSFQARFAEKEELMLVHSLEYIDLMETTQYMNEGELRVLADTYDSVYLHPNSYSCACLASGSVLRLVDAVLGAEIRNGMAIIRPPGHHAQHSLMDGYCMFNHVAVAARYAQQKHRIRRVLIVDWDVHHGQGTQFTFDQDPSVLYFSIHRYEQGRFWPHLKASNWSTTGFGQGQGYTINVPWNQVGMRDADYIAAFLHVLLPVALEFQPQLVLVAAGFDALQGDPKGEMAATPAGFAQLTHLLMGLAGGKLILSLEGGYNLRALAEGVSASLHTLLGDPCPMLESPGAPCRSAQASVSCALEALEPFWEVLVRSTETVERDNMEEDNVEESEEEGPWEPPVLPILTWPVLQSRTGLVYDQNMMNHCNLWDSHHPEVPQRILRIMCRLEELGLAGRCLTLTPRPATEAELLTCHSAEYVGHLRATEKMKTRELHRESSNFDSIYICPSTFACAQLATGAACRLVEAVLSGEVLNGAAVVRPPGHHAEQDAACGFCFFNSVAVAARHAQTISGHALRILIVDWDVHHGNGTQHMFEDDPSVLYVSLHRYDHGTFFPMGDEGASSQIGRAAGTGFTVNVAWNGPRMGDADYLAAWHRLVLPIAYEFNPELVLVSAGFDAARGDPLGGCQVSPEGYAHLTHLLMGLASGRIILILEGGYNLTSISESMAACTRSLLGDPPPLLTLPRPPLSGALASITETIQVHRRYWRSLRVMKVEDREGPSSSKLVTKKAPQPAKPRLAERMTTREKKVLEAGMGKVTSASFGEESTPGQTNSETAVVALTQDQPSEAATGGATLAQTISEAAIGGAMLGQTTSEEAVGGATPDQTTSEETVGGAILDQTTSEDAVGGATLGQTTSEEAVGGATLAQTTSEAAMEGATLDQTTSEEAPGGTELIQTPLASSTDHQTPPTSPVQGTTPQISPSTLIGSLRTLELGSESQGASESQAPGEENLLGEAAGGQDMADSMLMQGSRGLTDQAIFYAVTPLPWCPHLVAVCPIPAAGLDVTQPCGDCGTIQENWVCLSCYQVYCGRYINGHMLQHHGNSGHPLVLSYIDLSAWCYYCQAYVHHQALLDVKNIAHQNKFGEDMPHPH

Histone deacetylase 7 = target: T2, Histone deacetylase 7 (Homo sapiens, UniProt Q8WUI4); test: Inhibition of HDAC7 (unknown origin)
T2 sequence (Q8WUI4 whole entry): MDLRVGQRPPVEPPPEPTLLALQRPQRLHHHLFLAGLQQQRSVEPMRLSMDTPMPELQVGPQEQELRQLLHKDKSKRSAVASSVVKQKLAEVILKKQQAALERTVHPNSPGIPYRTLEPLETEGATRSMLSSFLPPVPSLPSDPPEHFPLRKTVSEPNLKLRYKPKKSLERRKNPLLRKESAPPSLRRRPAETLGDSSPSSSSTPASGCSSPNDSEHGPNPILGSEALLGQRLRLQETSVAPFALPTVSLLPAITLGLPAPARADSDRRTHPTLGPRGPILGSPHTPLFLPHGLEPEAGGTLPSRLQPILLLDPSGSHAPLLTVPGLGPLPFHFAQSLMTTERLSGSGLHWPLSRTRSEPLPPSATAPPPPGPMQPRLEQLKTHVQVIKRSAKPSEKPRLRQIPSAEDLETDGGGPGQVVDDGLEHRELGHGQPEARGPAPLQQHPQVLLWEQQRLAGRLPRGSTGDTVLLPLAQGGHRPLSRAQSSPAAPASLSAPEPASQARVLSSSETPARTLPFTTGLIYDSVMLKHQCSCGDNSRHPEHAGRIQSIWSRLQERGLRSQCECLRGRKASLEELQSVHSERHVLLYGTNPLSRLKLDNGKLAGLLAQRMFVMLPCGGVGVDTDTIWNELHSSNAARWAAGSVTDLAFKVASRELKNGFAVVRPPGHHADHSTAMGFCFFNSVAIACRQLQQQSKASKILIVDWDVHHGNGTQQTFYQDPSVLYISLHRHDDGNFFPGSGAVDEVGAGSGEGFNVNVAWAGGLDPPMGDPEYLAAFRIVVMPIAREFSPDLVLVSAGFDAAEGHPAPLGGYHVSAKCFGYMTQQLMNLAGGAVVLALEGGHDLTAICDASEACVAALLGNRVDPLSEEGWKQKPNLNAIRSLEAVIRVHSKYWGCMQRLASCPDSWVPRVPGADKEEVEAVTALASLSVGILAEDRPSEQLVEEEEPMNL

Histone deacetylase 8 = target: T3, Histone deacetylase 8 (Homo sapiens, UniProt Q9BY41); test: Inhibition of HDAC8 (unknown origin)
T3 sequence (Q9BY41 whole entry): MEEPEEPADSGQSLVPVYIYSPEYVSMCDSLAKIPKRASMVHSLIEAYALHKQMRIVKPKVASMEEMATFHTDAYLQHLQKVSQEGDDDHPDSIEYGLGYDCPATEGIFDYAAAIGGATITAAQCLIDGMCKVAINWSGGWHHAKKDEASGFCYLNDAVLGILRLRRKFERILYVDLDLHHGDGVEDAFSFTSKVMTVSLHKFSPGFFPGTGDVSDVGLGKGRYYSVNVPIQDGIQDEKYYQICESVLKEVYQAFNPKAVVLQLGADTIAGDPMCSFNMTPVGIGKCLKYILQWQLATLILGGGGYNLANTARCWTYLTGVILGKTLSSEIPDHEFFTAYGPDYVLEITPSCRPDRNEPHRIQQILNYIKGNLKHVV

Histone deacetylase 9 = Histone deacetylase 9 (Homo sapiens, UniProt Q9UKV0); test: Inhibition of HDAC9 (unknown origin)
Histone deacetylase 9, sequence (Q9UKV0 whole entry): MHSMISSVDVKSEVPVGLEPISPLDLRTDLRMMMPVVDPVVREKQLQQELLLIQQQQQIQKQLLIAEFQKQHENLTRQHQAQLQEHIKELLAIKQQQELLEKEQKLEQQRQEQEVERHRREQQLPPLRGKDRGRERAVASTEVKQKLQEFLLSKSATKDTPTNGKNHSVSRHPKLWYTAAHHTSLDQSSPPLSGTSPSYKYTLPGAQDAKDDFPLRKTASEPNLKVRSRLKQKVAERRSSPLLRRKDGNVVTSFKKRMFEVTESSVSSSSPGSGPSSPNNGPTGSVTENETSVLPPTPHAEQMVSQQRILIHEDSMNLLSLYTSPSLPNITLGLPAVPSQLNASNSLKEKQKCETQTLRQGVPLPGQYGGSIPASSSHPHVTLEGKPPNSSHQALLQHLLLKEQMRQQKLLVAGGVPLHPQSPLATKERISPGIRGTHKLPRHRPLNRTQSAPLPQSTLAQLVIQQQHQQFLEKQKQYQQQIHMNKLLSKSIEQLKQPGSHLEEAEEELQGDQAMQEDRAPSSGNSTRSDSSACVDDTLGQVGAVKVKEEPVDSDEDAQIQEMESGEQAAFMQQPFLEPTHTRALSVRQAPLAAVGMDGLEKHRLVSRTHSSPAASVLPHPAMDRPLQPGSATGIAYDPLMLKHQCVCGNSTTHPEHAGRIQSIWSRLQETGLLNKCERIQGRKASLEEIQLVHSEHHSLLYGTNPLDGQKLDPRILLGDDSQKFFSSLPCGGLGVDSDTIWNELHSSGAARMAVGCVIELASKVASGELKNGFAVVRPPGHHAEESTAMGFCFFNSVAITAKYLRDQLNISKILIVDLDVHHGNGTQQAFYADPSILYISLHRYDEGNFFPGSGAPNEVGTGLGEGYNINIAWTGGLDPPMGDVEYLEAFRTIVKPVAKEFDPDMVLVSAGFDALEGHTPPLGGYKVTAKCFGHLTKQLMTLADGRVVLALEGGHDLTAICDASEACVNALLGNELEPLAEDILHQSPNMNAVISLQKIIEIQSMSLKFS

[2] = target: T4, Polyamine deacetylase HDAC10 (Homo sapiens, UniProt Q969S8); test: Inhibition of HDAC10 (unknown origin)
T4 sequence (Q969S8 whole entry): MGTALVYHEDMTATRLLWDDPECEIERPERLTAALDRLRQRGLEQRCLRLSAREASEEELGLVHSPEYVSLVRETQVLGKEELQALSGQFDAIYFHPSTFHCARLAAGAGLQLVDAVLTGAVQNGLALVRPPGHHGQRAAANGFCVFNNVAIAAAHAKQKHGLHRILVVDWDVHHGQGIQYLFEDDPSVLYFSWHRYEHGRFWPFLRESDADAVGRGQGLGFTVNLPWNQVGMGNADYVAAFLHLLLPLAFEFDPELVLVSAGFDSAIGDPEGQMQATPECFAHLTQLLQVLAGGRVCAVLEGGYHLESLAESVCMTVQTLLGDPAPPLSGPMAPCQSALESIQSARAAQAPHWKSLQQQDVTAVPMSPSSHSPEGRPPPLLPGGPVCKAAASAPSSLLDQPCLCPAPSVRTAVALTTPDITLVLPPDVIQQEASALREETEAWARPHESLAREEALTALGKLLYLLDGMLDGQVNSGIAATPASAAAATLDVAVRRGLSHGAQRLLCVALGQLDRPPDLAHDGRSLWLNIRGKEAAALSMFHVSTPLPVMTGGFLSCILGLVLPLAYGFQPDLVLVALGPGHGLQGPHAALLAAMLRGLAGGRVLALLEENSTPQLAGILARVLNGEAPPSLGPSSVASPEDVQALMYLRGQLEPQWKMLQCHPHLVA

Histone deacetylase 11 = target: T5, Histone deacetylase 11 (Homo sapiens, UniProt Q96DB2); test: Inhibition of HDAC11 (unknown origin)
T5 sequence (Q96DB2 whole entry): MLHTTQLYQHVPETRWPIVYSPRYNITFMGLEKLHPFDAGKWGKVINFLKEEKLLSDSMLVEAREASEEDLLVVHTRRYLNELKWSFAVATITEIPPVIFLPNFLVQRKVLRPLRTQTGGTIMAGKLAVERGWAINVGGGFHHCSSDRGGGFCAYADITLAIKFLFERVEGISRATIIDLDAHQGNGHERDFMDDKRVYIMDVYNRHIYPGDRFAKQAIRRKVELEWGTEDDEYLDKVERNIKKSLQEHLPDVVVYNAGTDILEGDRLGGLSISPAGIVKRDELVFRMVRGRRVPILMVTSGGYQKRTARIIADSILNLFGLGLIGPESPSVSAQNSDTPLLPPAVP

Histone deacetylase 4 = Histone deacetylase 4 (Homo sapiens, UniProt P56524); test: Inhibition of HDAC4 (unknown origin)
Histone deacetylase 4, sequence (P56524 whole entry): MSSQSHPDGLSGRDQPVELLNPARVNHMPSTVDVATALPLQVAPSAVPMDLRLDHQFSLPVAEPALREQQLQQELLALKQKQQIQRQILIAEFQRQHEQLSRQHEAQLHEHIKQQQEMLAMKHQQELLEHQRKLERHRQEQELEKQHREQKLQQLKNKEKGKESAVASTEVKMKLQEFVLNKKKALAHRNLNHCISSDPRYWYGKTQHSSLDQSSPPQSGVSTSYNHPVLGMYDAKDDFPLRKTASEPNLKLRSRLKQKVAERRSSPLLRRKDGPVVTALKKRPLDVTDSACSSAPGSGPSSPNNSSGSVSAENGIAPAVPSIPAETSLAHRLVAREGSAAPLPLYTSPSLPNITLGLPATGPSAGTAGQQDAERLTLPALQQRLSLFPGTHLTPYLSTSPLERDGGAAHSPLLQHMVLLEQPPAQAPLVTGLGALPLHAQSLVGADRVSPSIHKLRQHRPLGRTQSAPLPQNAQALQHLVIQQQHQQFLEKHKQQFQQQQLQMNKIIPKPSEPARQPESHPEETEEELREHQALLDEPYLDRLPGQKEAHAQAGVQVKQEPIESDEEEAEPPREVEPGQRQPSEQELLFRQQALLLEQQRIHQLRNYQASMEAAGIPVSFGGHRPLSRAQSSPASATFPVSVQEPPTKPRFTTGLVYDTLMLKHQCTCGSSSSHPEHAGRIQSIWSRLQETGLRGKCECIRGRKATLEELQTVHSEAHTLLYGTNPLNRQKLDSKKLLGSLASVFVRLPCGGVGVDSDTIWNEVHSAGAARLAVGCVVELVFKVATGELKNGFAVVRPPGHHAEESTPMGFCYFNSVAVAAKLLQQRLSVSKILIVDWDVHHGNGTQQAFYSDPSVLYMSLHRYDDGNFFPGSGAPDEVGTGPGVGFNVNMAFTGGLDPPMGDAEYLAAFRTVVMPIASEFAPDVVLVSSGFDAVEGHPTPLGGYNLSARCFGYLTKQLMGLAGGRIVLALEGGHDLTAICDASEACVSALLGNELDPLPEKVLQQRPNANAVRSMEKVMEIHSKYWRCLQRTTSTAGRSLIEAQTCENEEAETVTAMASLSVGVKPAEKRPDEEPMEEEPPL

Vasopressin V1a receptor = Vasopressin V1a receptor (Homo sapiens, UniProt P37288); test: Inhibition of Vasopressin V1A receptor (unknown origin)
Spike glycoprotein = Spike glycoprotein (Severe acute respiratory syndrome coronavirus 2, UniProt P0DTC2); test: Binding affinity to SARS-Cov-2 Spike protein assessed as dissociation constant

Histone deacetylase 1, sequence (Q13547 whole entry): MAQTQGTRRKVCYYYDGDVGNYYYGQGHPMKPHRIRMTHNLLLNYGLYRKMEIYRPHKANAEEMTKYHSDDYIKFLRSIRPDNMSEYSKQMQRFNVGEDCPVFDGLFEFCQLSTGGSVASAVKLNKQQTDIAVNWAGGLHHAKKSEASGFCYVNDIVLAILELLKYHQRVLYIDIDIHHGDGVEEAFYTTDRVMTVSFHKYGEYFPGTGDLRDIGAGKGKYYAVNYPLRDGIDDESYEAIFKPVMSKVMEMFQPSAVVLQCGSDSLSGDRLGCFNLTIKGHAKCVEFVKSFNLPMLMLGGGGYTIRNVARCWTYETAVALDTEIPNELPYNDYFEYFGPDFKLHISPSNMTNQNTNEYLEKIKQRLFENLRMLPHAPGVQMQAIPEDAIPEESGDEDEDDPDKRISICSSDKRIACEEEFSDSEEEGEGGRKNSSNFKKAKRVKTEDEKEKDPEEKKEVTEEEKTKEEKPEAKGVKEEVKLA
Sphingosine kinase 1, sequence (Q9NYA1 whole entry): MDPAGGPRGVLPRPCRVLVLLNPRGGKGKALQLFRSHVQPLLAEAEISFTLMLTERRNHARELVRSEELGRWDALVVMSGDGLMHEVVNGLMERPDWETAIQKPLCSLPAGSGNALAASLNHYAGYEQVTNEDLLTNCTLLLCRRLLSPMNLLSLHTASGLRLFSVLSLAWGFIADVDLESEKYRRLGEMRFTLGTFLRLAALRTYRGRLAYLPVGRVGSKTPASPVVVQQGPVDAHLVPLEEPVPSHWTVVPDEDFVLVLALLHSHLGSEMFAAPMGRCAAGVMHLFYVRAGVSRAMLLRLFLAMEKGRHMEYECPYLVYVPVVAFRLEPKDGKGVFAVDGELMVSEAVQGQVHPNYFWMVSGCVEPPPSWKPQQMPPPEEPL

## NCCCNCCCCNCCCNC1=Nc2ccccc2CCC1
MCF7
  IC50: > 50 µM

## Brc1cc2c(c3ccccc13)N1OC(C2)CC1CCc1ccccc1 (stereo not given)
Sphingosine kinase 1
  IC50: > 650 µM

## O=C(NO)c1ccc(CN2c3cc(C(F)(F)F)ccc3S(=O)(=O)C[C@H]3CCCC[C@H]32)cc1
Histone deacetylase 1
  IC50: 8.8 µM
Histone deacetylase 3
  IC50: 16 µM
Histone deacetylase 2
  IC50: 16 µM
Histone deacetylase 5
  IC50: 22 µM
[1]
  IC50: 0.01 µM
Histone deacetylase 7
  IC50: 15 µM
Histone deacetylase 8
  IC50: 2 µM
Histone deacetylase 9
  IC50: > 30 µM
[2]
  IC50: 9.4 µM
Histone deacetylase 11
  IC50: 0.85 µM

## O=C(NO)c1ccc(CN2c3ccccc3SC[C@H]3CCCC[C@H]32)cc1
Histone deacetylase 1
  IC50: > 30 µM
Histone deacetylase 4
  IC50: > 30 µM
Histone deacetylase 5
  IC50: 27 µM
[1]
  IC50: 0.03 µM
Histone deacetylase 7
  IC50: > 30 µM
Histone deacetylase 8
  IC50: 5.3 µM
Histone deacetylase 9
  IC50: 25 µM
[2]
  IC50: > 30 µM
Histone deacetylase 11
  IC50: 1.5 µM

## CC1C[C@]2(C)C(NCCCNCCCCNCCCN)=Nc3ccccc3[C@]2(C)N(C)c2ccccc21 (stereo not given in full)
MCF7
  IC50: 9.84 µM

## Cc1ccccc1C(=O)Nc1ccc(C(=O)N2CCC[C@H](N(C)C)c3ccccc32)cc1
Vasopressin V1a receptor
  IC50: 14 µM

## CC1Cc2c(Cl)nc(-c3ccccc3)nc2N(C)c2ccc(O)cc21 (stereo not given)
Sphingosine kinase 1
  IC50: > 650 µM

## CN1CCCC(n2nc(Cc3ccc(Cl)cc3)c3ccccc3c2=O)CC1 (stereo not given) [AZELASTINE]
Spike glycoprotein
  Kd: 0.258 µM

Source: ChEMBL document CHEMBL6078616, “Seven-membered N-heterocycles as approved drugs and promising leads in medicinal chemistry as well as the metal-free domino access to their scaffolds” (Eur J Med Chem, 2024)
